The text below walks through data of article PMC1521118 (Environmental Health Perspectives, 1993).

Like-named read-outs stand apart in the source and are kept apart here.

The test system of data set [1] is Salmonella typhimurium TA98.
Data set [2] has as its system Salmonella typhimurium TA97.
Data set [3] relates to Bacillus subtilis-transforming DNA. The conditions noted are these: reactive species toward Bacillus subtilis-transforming DNA; cited from earlier work.
For data set [4] the following is noted: rat, in vivo; cited from earlier work.
In a further data set the test system is sulfotransferase. As to conditions: cited from earlier work.
For data set [5] the following is noted: 10 female Wistar rats; at 15 months; cited from earlier work.
In the next data set the test system is mouse sarcoma 180 cells. As to conditions: mouse sarcoma 180 cells in vitro; cited from earlier work.
In data set [6] the test system is sarcoma 180 ascites cells. The conditions noted are these: mice bearing sarcoma 180 ascites cells; cited from earlier work.
For data set [7] the following is noted: Sprague-Dawley rats; cited from earlier work.
Data set [8] relates to Salmonella typhimurium TA98. As to conditions: ref 35 (McCartney et al.); cited from earlier work.
A further data set relates to cytochrome P450. As to conditions: phenobarbital-inducible cytochrome P450, presumably CYP2B; cited from earlier work.
Where [9] appears, read: with (+) Aroclor 1254 rat hepatic S9 10% v/v, 100 ng/plate.
The mark [10] stands for this setting: absence of S9, 100 ng/plate or less.

As for `Cn1cnc2c(N)ncnc21` [9-Methyladenine], the “histidine revertants/plate, TA98” value in [1] (without (-) S9, 100 ng/plate) was 21 + 6 histidine revertants/plate. The “histidine revertants/plate, TA97” value in [2] (setting [9]) is 88 + 4 histidine revertants/plate.
Regarding `CC(=O)On1cnc2ncnc-2c1N` [1-acetoxyadenine], the mutagenicity result in data set [3] is recorded as “weak mutagen”.
As to `Cn1cnc2c(N)[n+]([O-])cnc21` [9-Methyladenine-1-N-oxide], the “histidine revertants/plate, TA98” value in data set [1] (with (+) S9, 100 ng/plate) is 118 + 9 histidine revertants/plate.
As to `Nc1c2[nH]cnc2nc[n+]1[O-]` [Adenine-1-N-oxide], the tumor production result in data set [4] is recorded as “failed to produce tumors”. The “histidine revertants/plate, TA98” value in data set [1] (without (-) S9, 100 ng/plate) was 19 + 6 histidine revertants/plate. Besides, in the data set with sulfotransferase, the “activity as a sulfate acceptor” value is “inactive”.
Take `ONc1ncnc2c1ncn2Cc1ccccc1` [9-Benzyl-6-hydroxylaminopurine]: the “mutagenic activity toward TA98 (in words)” value in data set [1] (setting [10]) was “inactive”. Moreover, the “mutagenic activity toward TA97 (in words)” value in [2] (setting [10]) is listed as “highly active”.
Turning to `ONc1ncnc2nc[nH]c12` [6-Hydroxylaminopurine], the tumors produced result in [5] is listed as “only one tumor”. Further, in the data set on mouse sarcoma 180 cells, the effect on cells entry is “induced mitotic inhibition and nuclear degeneration”. Besides, the “toxicity toward TA98” value in [1] (1 ng/plate) is given as “still toxic”; in data set [1] (100 ng/plate), “toxic”; in [1] (concentration not given) it was “extremely toxic”. Further, the “histidine revertants/plate, TA98” value in data set [1] (with (+) S9, 1 ng/plate) is listed as “toxic”; in data set [1] (without (-) S9, 1 ng/plate), “toxic”. Besides, the “reversion rate relative to spontaneous reversion rate, TA97” value in data set [2] (1 ng/plate, without metabolic activation) is “twice the spontaneous reversion rate”. Moreover, the “toxicity toward TA97” value in data set [2] (100 ng/plate) is “toxic”. Further, the “histidine revertants/plate, TA97” value in data set [2] (with (+) S9, 1 ng/plate) is recorded as 113 + 4 histidine revertants/plate. Besides, the survival time entry in data set [6] was “prolonged the survival time”. In addition, the oncogenicity entry in [7] was “completely inactive”. Besides, the “mutagenicity toward TA98” value in data set [8] was “inactive”.
For `Nc1ccc2cc3ccccc3cc2c1` [2-Aminoanthracene, reference compound], the “histidine revertants/plate, TA98” value in data set [1] (Salmonella typhimurium) is 865 histidine revertants/plate. The “histidine revertants/plate, TA97” value in data set [2] (Salmonella typhimurium) is 600 histidine revertants/plate.
For `Nc1ncnc2c1ncn2Cc1ccccc1` [9-Benzyladenine], the “histidine revertants/plate, TA98” value in [1] (with (+) S9, 100 ng/plate) is on record as 131 + 18 histidine revertants/plate.
As to `Nc1ncnc2nc[nH]c12` [Adenine], the “oxidation to adenine-1-N-oxide” value with cytochrome P450 is reported as “failed to oxidize”. Moreover, in data set [1] (with (+) S9, 100 ng/plate), the “histidine revertants/plate, TA98” value is listed as 76 + 11 histidine revertants/plate. Also, in data set [2] (setting [9]), the “histidine revertants/plate, TA97” value is 104 + 12 histidine revertants/plate.
